Data: patent US20110166417A1, “METHOD AND DEVICE FOR REPAIR OF DEGENERATIVE CARTILAGE” (THE REGENTS OF UNIVERSITY OF MICHIGAN, priority 2008, published 2011)

Experiments:
[1] = system: BMP-2, aggrecan and type II collagen mRNA expression in rat IVD cells; experiment: Mevalonate experiment; assay type: cell-based; conditions: mevalonate 200 μM
[2] = system: IVD cells; experiment: IVD cell proliferation / range of cell tolerance; assay type: cell-based, Sprague-Dawley rats; conditions: rat IVD cells
Text: (§1) Disc cell isolation: Nucleus pulposus and inner anulus fibrosus cells of lumbar intervertebral discs from Sprague-Dawley rats were harvested by the enzymatic digestion and grown in monolayer until reached confluence.
(§2) Monolayer and Three-dimensional cell culture: Cells were trypsinized and subcultured in 12-well plate or embedded and cultured in alginate beads supplemented with complete DMEM/F12 medium after primary culture.

[3] = system: BMP-2, aggrecan and collagen II mRNA expression in IVD cells; experiment: Quantitative real-time PCR, monolayer culture; assay type: cell-based, Sprague-Dawley rats; conditions: 3 μM, maximal at day 3
Text: as §1, §2
Quantitative real-time PCR: Total RNAs were extracted and cDNAs were synthesized using Invitrogen […]™ first-strand synthesis kit.

[4] = system: BMP-2, aggrecan and type II collagen mRNA expression in rat IVD cells; experiment: Quantitative real-time PCR, 3-D culture in alginate beads; assay type: cell-based, Sprague-Dawley rats
Text: Monolayer and Three-dimensional cell culture: Cells were trypsinized and subcultured in 12-well plate or embedded and cultured in alginate beads supplemented with complete DMEM/F12 medium after primary culture. […] Quantitative real-time PCR: […] IVD Cell Isolation. Lumbar IVDs from Sprague-Dawley rats (Harlan Sprague-Dawley, Indianapolis, Ind.) aged 6-8 weeks were harvested immediately after euthanasia. NP and inner AF, including the transition zone (the area between the AF and the NP) were carefully removed from the disc and placed in DMEM/F12 medium (Gibco, Grand Island, N.Y.). […] Louis, Mo.) and 0.004% deoxyribonuclease II (Sigma-Aldrich) for 90 min at 37° C. under gentle agitation. The tissues were washed 3 times with Dulbecco's phosphate buffered saline (D-PBS) followed by digestion under the same conditions, except that the pronase was replaced with 0.04% collagenase type II (Sigma-Aldrich) for 6 hrs. […] Culture medium was changed on day 6 after cell seeding, and twice per week thereafter. Cell Culture in Alginate Beads. When the primary cell culture became confluent, the cells were trypsinized and washed twice with D-PBS and re-suspended in sterile 0.15 M NaCl containing 1.2% low-viscosity alginate (Sigma-Aldrich) at a density of 1×10^6 cells/ml. […] After 15 min, the newly formed alginate beads (containing about 12,000 cells/bead) were washed 3 times with sterile 0.15 M NaCl solution followed by 2 washes with DMEM/F-12 medium. […] Three days later, the medium was changed and treated with different doses of simvastatin (LKT Laboratories, St. […] To remove cells from the alginate bead, wells were rinsed 3 times with 0.15 M NaCl with gentle pipetting into the well. The rinse solution was incubated for 1 min and was aspirated off. Dissolving buffer (55 mmol/L sodium citrate and 0.15 M NaCl, pH 6.0) 3 times the volume of alginate was added to the wells, and plates were incubated at 37° C. for 15 min with gentle shaking. Cells were pelleted by centrifugation and the dissolved solution was collected for sGAG content measurement. The cell pellet was washed with D-PBS once and collected for DNA content determination or RNA extraction. All experiments were performed in triplicate. RNA Isolation and Reverse Transcription. Total RNA was extracted using the Trizol (Invitrogen, Carlsbad, Calif.) reagent followed by RNeasy Mini Kit (Qiagen, Inc., Valencia, Calif.) and DNase digestion with the RNase-free DNase set (Qiagen). Concentration of total RNA was determined at 260 nm with a spectrophotometer. Reverse transcription was carried out at 42° C. for 50 min in 20-μL volume with 100 ng of total RNA using the SuperScript First-Strand Synthesis System (Invitrogen, Carlsbad, Calif.). Quantitative Real-Time Polymerase Chain Reaction. Real-time polymerase chain reaction (PCR) was used to quantify gene expression levels of type II collagen, aggrecan, and BMP-2. GAPDH was used as an internal control and the TAQMAN® Real-Time PCR Kit (Applied Biosystems, Foster City, Calif.) was implemented. Reaction volume of 30 μl included 1 μL of cDNA, 1.5 ul of 20× of each primer/probe, and 12.5 μL of TAQMAN® PCR Master Mix (2×) (Applied Biosystems). Real-time PCR was performed using the following 3-step protocol: Step 1, 50° C. for 2 min; Step 2, 95° C. for 10 min; and Step 3, (95° C. for 15 sec, 60° C. for 1 min) times 45 cycles using the Gene Amp 7700 Sequence Detection System (Applied Biosystems). A positive standard curve for each primer was obtained by real-time PCR with serially-diluted cDNA sample mixture. The reaction efficacy of each gene was determined using the standard curves. The quantity of gene expression of aggrecan, type II collagen, and BMP-2 were calculated with standard samples and normalized with GAPDH internal control.

[5] = system: rat IVD cells; experiment: MTT assay, cell viability; assay type: cell-based
Description: MTT assay. Cell proliferation was determined by a modified MTT assay (Sigma-Aldrich) (47, 48). Briefly, at each time point, the medium was aspirated and washed with PBS once. MTT solution (0.5 mg/ml) in PBS was added and incubated at 37° C. for 1.5 hr. The cells were removed from the alginate bead and pelleted by centrifugation. The cell pellet was then washed with D-PBS once and 10% Triton X-100, 0.1 N HCl in 2-propanol solution was added to each well to dissolve the formazan at 4° C. for 3 hrs. The dissolved solution was centrifuged and the absorbance was determined immediately using a spectrophotometer at 540 nm wavelength filter. All experiments were performed in triplicate.

[6] = system: aggrecan and type II collagen mRNA expression in rat IVD cells; experiment: BMP inhibition experiment (noggin); assay type: cell-based
Description: BMP Inhibition Experiment. […] On day 7 and/or day 14, the cells were removed from the alginate beads and the gene expression of type II collagen and aggrecan was determined.

[7] = molecular target: T1, BMP-2 (Homo sapiens, UniProt P12643); conditions: noggin 3 μg/ml; cited from earlier work
T1 sequence (P12643 283-396): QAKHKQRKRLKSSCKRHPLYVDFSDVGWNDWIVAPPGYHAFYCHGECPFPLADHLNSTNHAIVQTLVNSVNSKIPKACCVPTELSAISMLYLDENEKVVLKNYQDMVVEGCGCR

[8] = noggin 3 μg/ml, simvastatin 3 μM, day 14

CC(O)(CCO)CC(=O)O (stereo not drawn) [Mevalonate, mevalonate]
aggrecan, type II collagen and BMP-2 gene expression, mevalonate alone ([1]; alginate beads): had no effect | effect on gene expression (BMP-2, aggrecan, type II collagen) upregulated by simvastatin ([1]; simvastatin 3 μM, days 7 and 14): completely reversed

CCC(C)(C)C(=O)O[C@H]1C[C@@H](C)C=C2C=C[C@H](C)[C@H](CC[C@@H]3C[C@@H](O)CC(=O)O3)[C@H]21 [simvastatin]
dose over which IVD cell proliferation was inhibited [2]: over 3 μM | increase of BMP-2 mRNA expression [3]: 2 fold | increase of collagen type II mRNA expression ([4]; 3-D culture (alginate beads), 3 μM, day 21): 16 fold | increase of aggrecan mRNA expression ([4]; 3-D culture, 3 μM, day 21): 11 fold | increase of BMP-2 mRNA expression ([4]; 3-D culture, 3 μM, peak level at day 7): 5 fold | day of maximal type II collagen mRNA expression ([4]; alginate beads): 21 days | day of maximum BMP-2 mRNA expression ([4]; alginate beads, 3 μM): 2 days | day of maximum aggrecan mRNA expression ([4]; alginate beads, 3 μM): 21 days | IVD cell viability ([5]; 0.3 μM, time points tested): had no effect | IVD cell viability ([5]; 1 μM, from day 3 and thereafter): significant decrease | IVD cell viability ([5]; 3 μM, all time points tested): decreased

Noggin
aggrecan and type II collagen mRNA expression, noggin alone ([6]; noggin 500 ng/ml, no simvastatin): had no interference | block of aggrecan and type II collagen gene expression upregulated by simvastatin ([6]; noggin 500 ng/ml, simvastatin 3 μM, day 7): significantly blocked | block of aggrecan and type II collagen gene expression upregulated by simvastatin ([6]; noggin 500 ng/ml, simvastatin 3 μM, day 14): did not endure | aggrecan and type II collagen gene expression compared with Veh+Veh, noggin alone ([6]; noggin 3 μg/ml): inhibited both gene expressions significantly | effect on aggrecan gene expression upregulated by simvastatin [6, 8]: failed to block | effect on type II collagen gene expression upregulated by simvastatin [6, 8]: attenuated | effect on type II collagen gene expression upregulated by simvastatin ([6]; noggin 3 μg/ml, simvastatin 3 μM, day 14, listed as noggin): significantly attenuated | block of BMP-2 activity [7]: over 90%
